Data as given in patent US11364275B2, “Linear lipopeptide paenipeptins and methods of using the same” (priority 2017, dated 2022).
≈ marks a conversion by molar mass, not a printed value. Where two headings read alike, the source gives them in different places. Blank lines part the entries; values can stand above or below the compound they belong to. Where a SMILES comes first, the peptide text is derived from it. [ ]: non-standard residue; d: D form. The star is where a group is joined. Cha = N[C@@H](CC1CCCCC1)C(=O)O; Heptanoyl = CCCCCCC(=O)*; Dab = NCC[C@H](N)C(=O)O

What was measured:
A. baumannii ATCC 19606 = format: cell-based, Acinetobacter baumannii
Description: (§1) The surviving cells from each antimicrobial concentration with no visible growth were enumerated by plating on tryptic soy agar (TSA). MBC was defined as the lowest concentration of the antimicrobial agent that led to at least a 99.9% reduction in the number of viable bacterial cells relative to the initial inoculum. There were three independent experiments with one replicate in each experiment.

S. aureus ATCC 29213 [1] = format: cell-based, Staphylococcus aureus
Procedure: (§2) The impact of human serum on the antibacterial activity of selected paenipeptin analogues was determined using a procedure similar to that used for MIC determination as described above except that the microbiological medium was replaced by human serum (MP Biomedicals, Solon, Ohio). Paenipeptin analogues were two-fold diluted in 100% human serum and mixed with an equal volume of 90% serum containing approximately 1.5×10^5 CFU/mL of E. coli ATCC 25922 or S. aureus ATCC 29213. The final paenipeptin concentrations ranged from 0.5-64 μg/mL in 95% serum. The MIC in the presence of serum was then tested as described above.

E. coli ATCC 25922 [2] = format: cell-based, Escherichia coli; details: E. coli; 95% serum vs TSB
Procedure: as §2

P. aeruginosa ATCC 27853 [3] = format: cell-based, Pseudomonas aeruginosa
Description: as §1

S. aureus ATCC 29213 [4] = assay: Time-kill assay; format: cell-based, Staphylococcus aureus; details: for reduction of viable cells: after 4 h
Procedure: (§3) The surviving cells after antimicrobial treatment were enumerated at 0, 2, 4, 6 and 24 h by plating on TSA. There were three independent experiments with one replicate in each experiment

[5] = tested on: methicillin-resistant S. aureus strain LAC biofilm; assay: Established catheter-associated biofilm in vitro; format: cell-based, Staphylococcus aureus; details: for reduction of viable biofilm-associated cells: 72 h
Procedure: (§4) Each well was inoculated with the methicillin-resistant S. aureus strain LAC or P. aeruginosa ATCC 27853 to an OD600nm of 0.05. […] After 72 h of exposure, catheters were rinsed with PBS, followed by sonication (for S. aureus) or vigorous vortexing (for P. aeruginosa) to quantitatively recover adherent bacteria. Viable S. aureus or P. aeruginosa cells were enumerated by plating serial dilutions on TSA.

rabbit red blood cells = assay: Hemolytic activity; format: cell-based; details: relative to Triton X-100
In short: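 Washed defibrinated rabbit RBCs in PBS pH 7.2 incubated 30 min at 37 °C with paenipeptin analogues at 16–128 μg/mL final. Released hemoglobin read at 415 nm in the supernatant; % hemolysis relative to 0.1% Triton X-100.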

[6] = tested on: Escherichia coli ATCC 25922; format: in vitro ADME
Procedure: To determine the stability of peptides in human serum, paenipeptin analogues were added into 100% human serum to a final concentration of 64 μg/ml. The mixtures were incubated at 37° C. and samples were withdrawn at 0, 6, 12 and 24 h. […] The residual antibacterial activity after incubation in human serum was compared to the non-treated control.

P. aeruginosa ATCC 27853 [7] = assay: Impact of purified LPS on bactericidal activity; format: cell-based, Pseudomonas aeruginosa; details: LPS 100 μg/ml; analogue at 16 μg/mL; 60 min
Procedure: For studies with LPS, P. aeruginosa ATCC 27853 was diluted with TSB to contain approximately 10^6 CFU/mL. […] The mixtures were incubated at 37° C. with agitation at 200 rpm for 60 min. Surviving cells were quantified by plating on TSA. There were three independent experiments with one replicate in each experiment. […] There were four independent experiments with one replicate in each experiment.

[8] = tested on: Escherichia coli ATCC 25922; format: cell-based; details: ATCC 25922
S. aureus ATCC 29213 [9] = assay: Impact of purified LTA on bactericidal activity; format: cell-based, Staphylococcus aureus; details: analogue at 32 μg/mL, 60 min
P. aeruginosa ATCC 27853 [10] = assay: Time-kill assay; format: cell-based, Pseudomonas aeruginosa
Procedure: as §3

E. coli ATCC 25922 [11] = format: cell-based, Escherichia coli
Description: as §1

[12] = tested on: nine carbapenem-resistant clinical isolates from the FDA-CDC Antibiotic Resistance Bank; details: range over nine carbapenem-resistant clinical isolates
Procedure: The minimum inhibitory concentration (MIC) of paenipeptin analogues was determined using the broth microdilution method (Wirker, M. A. Methods for Dilution Antimicrobial Susceptibility Tests for Bacteria that Grow Aerobically: Approved Standard M07-A8; Clinical and Laboratory Standards Institute, Wayne, Pa., 2009).
(§6) Paenipeptin analogues were two-fold diluted in tryptic soy broth (TSB; Becton Dickinson) and mixed with an equal volume of bacterial suspensions in TSB containing approximately 1.5×10^5 colony-forming units (CFU)/mL in a clear UV-sterilized 96-well microtiter plate (NBS, Corning Inc., Corning, N.Y.). […] The microtiter plate was incubated at 37° C. for 18-20 h.
There were at least three independent experiments with one replicate in each experiment.

[13] = tested on: P. aeruginosa ATCC 27853 biofilm; assay: Established catheter-associated biofilm in vitro; format: cell-based, Pseudomonas aeruginosa; details: 40× MIC (40 μg/ml)
Procedure: as §4

[14] = tested on: Klebsiella pneumoniae ATCC 13883; format: cell-based; details: K. pneumoniae
[15] = tested on: Acinetobacter baumannii ATCC 19606; format: cell-based
Procedure: The minimum inhibitory concentration (MIC) of paenipeptin analogues was determined using the broth microdilution method (Wirker, M. A. Methods for Dilution Antimicrobial Susceptibility Tests for Bacteria that Grow Aerobically: Approved Standard M07-A8; Clinical and Laboratory Standards Institute, Wayne, Pa., 2009). Seven reference strains (Acinetobacter baumannii ATCC 19606, Escherichia coli ATCC 25922, Klebsiella pneumoniae ATCC 13883, Pseudomonas aeruginosa ATCC 27853, Enterococcus faecium ATCC 19434, Staphylococcus aureus ATCC 29213 and methicillin-resistant S. aureus ATCC 43300) were subjected to MIC testing.
as §6

[16] = tested on: A. baumannii FDA-CDC AR 0063; assay: microbe, parasite or virus in culture; details: Acinetobacter baumannii, read-out: MIC alone
[17] = tested on: Klebsiella pneumoniae ATCC 13883; assay: MIC of antibiotics with or without paenipeptin analogues (potentiation); format: cell-based; details: Klebsiella pneumoniae, ATCC13883
Description: (§5) Gram-negative bacteria, including Acinetobacter and Klebsiella, are intrinsically resistant to the hydrophobic antibiotic rifampicin.

[18] = tested on: Acinetobacter baumannii ATCC 19606; assay: as above; format: cell-based; details: Acinetobacter baumannii, ATCC19606; A. baumannii ATCC 19606; rifampicin alone; read-out: MIC of rifampicin at 0 μg/mL of paenipeptin analogues
Description: as §5

[19] = tested on: K. pneumoniae FDA-CDC AR 0097; assay: microbe, parasite or virus in culture; details: Klebsiella pneumoniae, read-out: MIC alone
[20] = tested on: K. pneumoniae FDA-CDC AR 0034; assay: microbe, parasite or virus in culture; details: Klebsiella pneumoniae, read-out: MIC alone
[21] = tested on: K. pneumoniae FDA-CDC AR 0068; assay: microbe, parasite or virus in culture; details: Klebsiella pneumoniae, read-out: MIC alone
[22] = tested on: A. baumannii FDA-CDC AR 0083; assay: microbe, parasite or virus in culture; details: Acinetobacter baumannii, read-out: MIC alone
[23] = tested on: A. baumannii FDA-CDC AR 0052; assay: microbe, parasite or virus in culture; details: Acinetobacter baumannii, read-out: MIC alone
[24] = tested on: K. pneumoniae FDA-CDC AR 0080; assay: microbe, parasite or virus in culture; details: Klebsiella pneumoniae, read-out: MIC alone
[25] = tested on: A. baumannii FDA-CDC AR 0037; assay: microbe, parasite or virus in culture; details: Acinetobacter baumannii, read-out: MIC alone
[26] = tested on: K. pneumoniae FDA-CDC AR 0044; assay: microbe, parasite or virus in culture; details: Klebsiella pneumoniae, read-out: MIC alone
[27] = tested on: A. baumannii FDA-CDC AR 0063; assay: Time-kill kinetics in 95% human serum, alone and combined; format: cell-based, Acinetobacter baumannii; details: A. baumannii AR 0063, 24 h
Procedure: Bacterial viable counts were determined at 0, 2, 4, 6, and 24 h after antimicrobial treatment. Bacterial surviving counts at 24 h endpoints were subjected to analysis of variance (ANOVA) followed by Tukey's honest significant difference (HSD) tests using SPSS Statistics (version 24; SPSS, Inc., Chicago, Ill., USA).
To further test the therapeutic potential of paenipeptin analogues, the time-kill kinetics assays of paenipeptins alone or in combination with other antibiotics were performed in 95% human serum in vitro. Without antimicrobial treatment, the population of A. baumannii FDA-CDC AR 0063 increased from 5.8 log to 9.3 log within 24 h. […] (FIG. 7A).

[28] = tested on: A. baumannii FDA-CDC AR 0070; assay: microbe, parasite or virus in culture; details: Acinetobacter baumannii, read-out: MIC alone
S. aureus ATCC 43300 = format: cell-based, Staphylococcus aureus
Description: as §1

S. aureus ATCC 29213 [29] = format: cell-based, Staphylococcus aureus; remark: listed apart in the source
Description: as §1

[30] = tested on: Pseudomonas aeruginosa ATCC 27853; format: cell-based; details: ATCC 27853

SMILES: CC(C)C[C@H](NC(=O)[C@@H](Cc1ccccc1)NC(=O)[C@H](CCN)NC(=O)[C@H](Cc1ccccc1)NC(=O)[C@H](CCN)NC(=O)[C@@H](N)CC1CCCCC1)C(=O)N[C@@H](CCN)C(=O)N[C@H](CC(C)C)C(=O)N[C@@H](Cc1ccccc1)C(=O)N[C@@H](CO)C(N)=O [Analogue 17] (H-[Cha][Dab]F[Dab][dF]L[Dab][dL]FS-NH2)
MBC (A. baumannii ATCC 19606): 4 to 8 µg/mL
reduction in activity in the presence of human serum (S. aureus ATCC 29213 [1]; S. aureus, 95% serum vs TSB): 88-94%
reduction in activity in the presence of human serum (E. coli ATCC 25922 [2]): 88-94%
MBC (P. aeruginosa ATCC 27853 [3]): 2 to 4 µg/mL
regrowth (S. aureus ATCC 29213 [4]; 8 μg/ml): Regrowth
reduction of viable cells (S. aureus ATCC 29213 [4]; 16 μg/ml): 3.1 logs
reduction of viable cells (S. aureus ATCC 29213 [4]; 32 μg/ml): 5.4 logs
reduction of viable biofilm-associated cells ([5]; 40 μg/mL (5×MIC)): 3 log
reduction of viable biofilm-associated cells ([5]; 160 μg/mL (20×MIC)): 5 log
catheters completely cleared of viable bacteria ([5]; 20 times MIC, six catheters): 50%
Hemolysis (rabbit red blood cells; 16 μg/mL): 0.60 ± 0.18%
Hemolysis (rabbit red blood cells; 32 μg/mL): 2.46 ± 0.34%
Hemolysis (rabbit red blood cells; 64 μg/mL): 11.02 ± 0.99%
Hemolysis (rabbit red blood cells; 128 μg/mL): 34.6 ± 0.91%
MIC after incubation in human serum at 37° C. ([6]; ATCC 25922, 0 h): 4 to 8 µg/mL
MIC after incubation in human serum at 37° C. ([6]; ATCC 25922, 6 h): 4 to 8 µg/mL
MIC after incubation in human serum at 37° C. ([6]; ATCC 25922, 12 h): 4 to 8 µg/mL
impact of purified LPS on bactericidal activity (P. aeruginosa ATCC 27853 [7]): neutralized the bactericidal activity
MIC [8]: 0.5 to 1 µg/mL
impact of purified LTA on antibacterial activity (S. aureus ATCC 29213 [9]; LTA 50 μg/ml): some inhibition
impact of purified LTA on antibacterial activity (S. aureus ATCC 29213 [9]; LTA 100 μg/mL): significantly reduced the antibacterial activity
reduction of viable cells (P. aeruginosa ATCC 27853 [10]; 8 μg/ml, 2 h): 2.2 log
regrowth at 24 h (P. aeruginosa ATCC 27853 [10]; 8 μg/ml, 24 h): significant bacterial regrowth was observed
viable cells after 24 h exposure (P. aeruginosa ATCC 27853 [10]; 16 μg/ml, 24 h): no viable cells were detected
reduction of viable cells (P. aeruginosa ATCC 27853 [10]; 16 μg/ml, within 2 h): 3.7 logs
viable cells after 24 h exposure (P. aeruginosa ATCC 27853 [10]; 32 μg/ml, 24 h): no viable cells were detected
reduction of viable cells (P. aeruginosa ATCC 27853 [10]; 32 μg/ml, within 2 h): 5.1 logs
MBC (E. coli ATCC 25922 [11]): 8 to 16 µg/mL
MIC [12]: 0.5 to 2 µg/mL
reduction of viable cells in established biofilm [13]: 2.6 log
improvement in antibacterial activity by comparison to compound 8 [14]: ≥ 4 fold
improvement in antibacterial activity by comparison to compound 8 ([15]; A. baumannii): ≥ 4 fold

MIC [16]: 1 µg/mL (≈ 1.22 µM)
MIC ([17]; K. pneumoniae ATCC 13883, rifampicin alone, read-out: MIC of rifampicin at 0 μg/mL of paenipeptin analogues): 16 µg/mL
MIC ([17]; K. pneumoniae, read-out: MIC of rifampicin alone): 19.4 µM
MIC [18]: 16 µg/mL
MIC [19]: 32 µg/mL (≈ 38.9 µM)
MIC [20]: 16 µg/mL (≈ 19.4 µM)
MIC [21]: 32 µg/mL (≈ 38.9 µM)
MIC [22]: 32 µg/mL (≈ 38.9 µM)
MIC [23]: 1 µg/mL (≈ 1.22 µM)
MIC [24]: > 32 µg/mL
MIC [25]: 2 µg/mL (≈ 2.43 µM)
MIC [26]: 32 µg/mL (≈ 38.9 µM)
MIC [28]: 1 µg/mL (≈ 1.22 µM)
SMILES: CO[C@H]1/C=C/O[C@@]2(C)Oc3c(C)c(O)c4c(O)c(c(/C=N/N5CCN(C)CC5)c(O)c4c3C2=O)NC(=O)/C(C)=C\C=C\[C@H](C)[C@H](O)[C@@H](C)[C@@H](O)[C@@H](C)[C@H](OC(C)=O)[C@@H]1C [rifampicin]
log reduction of cell population, single agent at 4 μg/ml [27]: 1.4 log

MIC [30]: 1 to 2 µg/mL
MIC [8]: 0.5 to 2 µg/mL
MIC ([15]; ATCC 19606): 2 to 4 µg/mL
SMILES: CCCCCCC(=O)N[C@@H](CCN)C(=O)N[C@@H](Cc1ccccc1)C(=O)N[C@@H](CCN)C(=O)N[C@H](Cc1ccccc1)C(=O)N[C@@H](CC(C)C)C(=O)N[C@@H](CCN)C(=O)N[C@H](CC(C)C)C(=O)N[C@@H](Cc1ccccc1)C(=O)N[C@@H](CO)C(N)=O [Analogue 7] (Heptanoyl-[Dab]F[Dab][dF]L[Dab][dL]FS-NH2)
Minimum inhibitory concentration (S. aureus ATCC 29213 [1]; ATCC 29213): 32 to 64 µg/mL
MBC (S. aureus ATCC 43300): 8 to 16 µg/mL
MBC (S. aureus ATCC 29213 [29]): 8 to 32 µg/mL
Hemolysis (rabbit red blood cells; 32 μg/mL): 5.10 ± 1.26%
Hemolysis (rabbit red blood cells; 64 μg/mL): 18.8 ± 2.44%
Hemolysis (rabbit red blood cells; 128 μg/mL): 64.2 ± 3.28%
Minimum inhibitory concentration [8]: 0.5 to 2 µg/mL
MBC (E. coli ATCC 25922 [11]): 8 to 16 µg/mL
